# Biological target: Insulin-regulated aminopeptidase (Homo sapiens)
# Test: Inhibition of recombinant human IRAP using L-AMC as substrate preincubated for 30 mins followed by substrate addition and measured after 1 hr by fluorescence based assay
row,Structure (SMILES),IC50 [µM]
1,O=C1N=C(S)SC1=Cc1ccc(C(=O)O)cc1,40.9
2,O=C(NO)c1ccc(S(=O)(=O)N2CCCCC2)s1,60.3
3,O=C(Cc1ccc(S(=O)(=O)N2CCCCC2)s1)NO,16.3
4,O=C(O)c1cccc(S(=O)(=O)N2CCCC2)c1,88.1
5,O=C(O)c1cccc(S(=O)(=O)N2CCCCC2)c1,14.4
6,O=C(O)c1cccc(S(=O)(=O)N2CCC(F)CC2)c1,15.1
7,CN1C(=O)SC(Cc2ccc(C(=O)O)cc2)C1=O (configuration not stated),13.3

# Reference: BindingDB's records for PubMed 39369482 (Univ. Lille)
